Laboratory results taken from patent US20230271983A1, “FUNCTIONALIZED ISONITRILES AND PRODUCTS, PREPARATION AND USES THEREOF” (UNIVERSIDADE DE SANTIAGO DE COMPOSTELA, priority 2020, published 2023).

Assays:
human A3AR = target: T1, human A3AR (Homo sapiens, UniProt P0DMS8); test: A3AR radioligand competition binding, [3H]NECA, HeLa cell membranes; details: for Ki: 10 nM [3H]NECA, 25° C. 180 min, read-out: A3 Ki; for inhibition at 1 µM: read-out: A3 specific binding inhibition percentage
T1 construct: expressed in transfected cells; host or cells: HeLa
T1 sequence (P0DMS8 1-318): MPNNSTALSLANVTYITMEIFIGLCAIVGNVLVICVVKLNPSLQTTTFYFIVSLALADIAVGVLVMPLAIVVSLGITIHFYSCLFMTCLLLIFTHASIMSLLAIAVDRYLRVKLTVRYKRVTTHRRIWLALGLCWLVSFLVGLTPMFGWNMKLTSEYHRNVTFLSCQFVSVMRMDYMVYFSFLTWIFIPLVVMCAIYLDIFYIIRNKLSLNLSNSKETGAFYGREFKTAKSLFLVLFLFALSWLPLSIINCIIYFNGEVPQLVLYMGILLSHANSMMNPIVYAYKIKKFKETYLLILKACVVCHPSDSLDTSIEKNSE
Text: (§1) was evaluate in vitro using radioligand binding assays following a previously described protocol (J. Med. Chem. 2019, 62, 9315-9330). Human ARs were expressed in transfected cell lines [e.g. chinese hamster ovary (CHO) cells (A1AR), human epithelial carcinoma (HeLa) cells (A2AAR and A3AR) and human embryonic kidney (HEK-293) cells (A2BAR)]. [^3H]DPCPX for A1AR and A2BAR, [^3H]NECA for A3AR, and [^3H]ZM241385 for A2AAR were employed as radioligands. […] Using Prism 5.0 software (GraphPad, San Diego, Calif.) K; values were acquired by fitting the data by non-linear regression. Results are the average of three experiments, each of them performed in duplicate. Radioligand binding competition assays were performed in vitro using human ARs expressed in transfected HeLa [hA2AAR (9 pmol/mg protein) and hA3AR (3 pmol/mg protein)], HEK-293 [hA2BAR (1.5 pmol/mg protein)] and CHO [hA1AR (1.5 pmol/mg protein)] cells. A brief description is given below. A1AR competition binding experiments were carried out in membranes from CHO-A, cells labelled with 1 nM [^3H]DPCPX (KD=0.7 nM). Non-specific binding was determined in the presence of 10 μM R-PIA. The reaction mixture was incubated at 25° C. for 60 min. A2AAR competition binding experiments were carried out in membranes from HeLa-A2A cells labelled with 3 nM [^3H]ZM241385 (KD=2 nM). Non-specific binding was determined in the presence of 50 μM NECA. The reaction mixture was incubated at 25° C. for 30 min. […] Non-specific binding was determined in the presence of 400 μM NECA. The reaction mixture was incubated at 25° C. for 30 min. A3AR competition binding experiments were carried out in membranes from HeLa-A3 cells labelled with 10 nM [^3H]NECA (KD=8.7 nM). Non-specific binding was determined in the presence of 100 μM R-PIA. The reaction mixture was incubated at 25° C. for 180 min. After the incubation time, membranes were washed and filtered, radioactivity was detected in a Microbeta Trilux reader (PerkinElmer).
(§2) The adenosinergic (affinity and selectivity) profile of several compounds of the invention was evaluated according to the above examples.

human A2AAR = target: T2, human A2AAR (Homo sapiens, UniProt P29274); test: A2AAR radioligand competition binding, [3H]ZM241385, HeLa cell membranes; details: for Ki: 3 nM [3H]ZM241385, 25° C. 30 min, read-out: A2A Ki; for inhibition at 1 µM: read-out: A2A specific binding inhibition percentage
T2 construct: expressed in transfected cells; host or cells: HeLa
Text: as §1, §2

human A2BAR = target: T3, human A2BAR (Homo sapiens, UniProt P29275); test: A2BAR radioligand competition binding, [3H]DPCPX, HEK-293 cell membranes; details: for inhibition at 1 µM: read-out: A2B specific binding inhibition percentage; for Ki: 25 nM [3H]DPCPX, 25° C. 30 min, read-out: A2B Ki
T3 construct: host or cells: HEK-293
T3 sequence (P29275 1-332): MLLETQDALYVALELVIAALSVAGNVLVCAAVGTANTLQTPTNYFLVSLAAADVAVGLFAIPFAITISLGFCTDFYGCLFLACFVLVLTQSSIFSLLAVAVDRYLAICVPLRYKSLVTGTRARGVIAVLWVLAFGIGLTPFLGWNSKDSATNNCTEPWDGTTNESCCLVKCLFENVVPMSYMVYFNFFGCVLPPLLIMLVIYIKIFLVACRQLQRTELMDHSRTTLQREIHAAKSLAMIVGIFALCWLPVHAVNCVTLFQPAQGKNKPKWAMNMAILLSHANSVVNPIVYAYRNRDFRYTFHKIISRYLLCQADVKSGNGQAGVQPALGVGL
Text: as §1, §2

human A1AR = target: T4, human A1AR (Homo sapiens, UniProt P30542); test: A1AR radioligand competition binding, [3H]DPCPX, CHO cell membranes; details: for inhibition at 1 µM: read-out: A1 specific binding inhibition percentage; for Ki: 1 nM [3H]DPCPX, 25° C. 60 min, read-out: A1 Ki
T4 construct: expressed in transfected cells; host or cells: CHO
T4 sequence (P30542 1-326): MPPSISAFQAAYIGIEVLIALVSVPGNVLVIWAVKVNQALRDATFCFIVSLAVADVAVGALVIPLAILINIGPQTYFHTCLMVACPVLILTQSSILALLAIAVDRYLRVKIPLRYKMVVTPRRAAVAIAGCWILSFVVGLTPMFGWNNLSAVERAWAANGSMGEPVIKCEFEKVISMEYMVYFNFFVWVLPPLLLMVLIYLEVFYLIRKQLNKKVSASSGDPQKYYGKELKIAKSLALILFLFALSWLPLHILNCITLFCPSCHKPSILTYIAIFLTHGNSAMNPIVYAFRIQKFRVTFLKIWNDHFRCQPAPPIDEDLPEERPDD
Text: as §1, §2

Dopamine D3 receptor = target: T5, Dopamine D3 receptor (Homo sapiens, UniProt P35462); test: Dopamine D3 receptor competition binding, [3H]-Spiperone; details: 1 nM [3H]-Spiperone
T5 construct: purchased Perkin Elmer ES-173M400UA
Experimental: (§3) was evaluated in vitro using radioligand binding assays following a previously described protocol (J. Med. Chem., 2020, 63, 613-620, Eur. J. Med. Chem., 2019, 180, 673-689). Dopamine D2 receptor competition binding experiments were carried out in a polypropilene 96-well plate. In each well was incubated 10 μg of membranes from CHO-D2 #S20 cell line prepared in Biofarma laboratory (Lot: A002/22-07-2015, protein concentration=4185 μg/ml), 0.15 nM [3H]-Spiperone (80.2 Ci/mmol, 1 mCi/ml, Perkin Elmer NET1187001MC) and compounds studied and standard. Non-specific binding was determined in the presence of Sulpiride 10 μM (Sigma S112). The reaction mixture (Vt: 250 μl/well) was incubated at 25° C. for 120 min, 200 μL was transferred to GF/C 96-well plate (Millipore, Madrid, Spain) pretreated with 0.5% of PEI and treated with binding buffer (Tris-HCl 50 mM, EDTA 1 mM, MgCl2 5 mM, KCl 5 mM, NaCl 120 mM, pH=7.4), after was filtered and washed four times with 250 μl wash buffer (Tris-HCl 50 mM, NaCl 0.9%, pH=7.4), before measuring in a microplate beta scintillation counter (Microbeta Trilux, PerkinElmer). Dopamine D3 receptor competition binding experiments were carried out in a polypropilene 96-well plate. In each well was incubated 2 μg of membranes from D3 cell line (Perkin Elmer, ES-173M400UA, protein concentration=1000 μg/ml), 1 nM [3H]-Spiperone (68 Ci/mmol, 1 mCi/ml, Perkin Elmer NET1187001MC) and compounds studied and standard. Non-specific binding was determined in the presence of Haloperidol 1 μM (Sigma H1512). The reaction mixture (Vt: 250 μl/well) was incubated at 25° C. for 60 min, 200 μL was transferred to GF/C 96-well plate (Millipore, Madrid, Spain) pretreated with 0.5% of PEI and treated with binding buffer (Tris-HCl 50 mM, MgCl2 5 mM, pH=7.4), after was filtered and washed four times with 250 μl wash buffer (Tris-HCl 50 mM, pH=7.4), before measuring in a microplate beta scintillation counter (Microbeta Trilux, PerkinElmer, Madrid, Spain).

Dopamine D2 receptor = target: T6, Dopamine D2 receptor (Homo sapiens, UniProt P14416); test: Dopamine D2 receptor competition binding, [3H]-Spiperone, CHO-D2 membranes; details: 0.15 nM [3H]-Spiperone
T6 construct: expressed in transfected cells; host or cells: CHO-D2 #S20 (membranes prepared in Biofarma laboratory)
Experimental: as §3

D4 = target: T7, D4 (Homo sapiens, UniProt P21917); test: Dopamine D4 radioligand binding
T7 sequence (P21917 1-419): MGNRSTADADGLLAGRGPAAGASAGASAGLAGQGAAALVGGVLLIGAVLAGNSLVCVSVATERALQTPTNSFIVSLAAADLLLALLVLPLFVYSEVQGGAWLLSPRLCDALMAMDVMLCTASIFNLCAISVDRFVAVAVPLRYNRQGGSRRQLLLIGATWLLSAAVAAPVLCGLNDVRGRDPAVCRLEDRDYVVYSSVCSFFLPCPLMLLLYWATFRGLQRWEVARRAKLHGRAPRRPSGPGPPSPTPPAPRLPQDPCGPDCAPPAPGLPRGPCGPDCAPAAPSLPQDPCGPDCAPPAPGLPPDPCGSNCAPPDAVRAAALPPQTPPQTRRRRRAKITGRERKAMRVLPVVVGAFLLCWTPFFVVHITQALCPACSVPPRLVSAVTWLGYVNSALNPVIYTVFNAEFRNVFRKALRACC

T5 sequence (P35462 whole entry): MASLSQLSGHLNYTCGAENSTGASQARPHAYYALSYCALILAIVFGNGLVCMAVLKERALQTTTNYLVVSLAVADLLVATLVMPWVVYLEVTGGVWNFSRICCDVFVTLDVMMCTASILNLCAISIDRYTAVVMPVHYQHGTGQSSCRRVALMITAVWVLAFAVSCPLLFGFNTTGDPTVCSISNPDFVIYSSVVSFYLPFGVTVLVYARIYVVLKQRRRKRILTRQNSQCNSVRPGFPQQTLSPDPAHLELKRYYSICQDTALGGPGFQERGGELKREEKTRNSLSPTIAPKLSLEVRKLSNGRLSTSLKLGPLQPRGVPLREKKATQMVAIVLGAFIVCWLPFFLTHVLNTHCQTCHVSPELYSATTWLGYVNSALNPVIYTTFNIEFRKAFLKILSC
T2 sequence (P29274 whole entry): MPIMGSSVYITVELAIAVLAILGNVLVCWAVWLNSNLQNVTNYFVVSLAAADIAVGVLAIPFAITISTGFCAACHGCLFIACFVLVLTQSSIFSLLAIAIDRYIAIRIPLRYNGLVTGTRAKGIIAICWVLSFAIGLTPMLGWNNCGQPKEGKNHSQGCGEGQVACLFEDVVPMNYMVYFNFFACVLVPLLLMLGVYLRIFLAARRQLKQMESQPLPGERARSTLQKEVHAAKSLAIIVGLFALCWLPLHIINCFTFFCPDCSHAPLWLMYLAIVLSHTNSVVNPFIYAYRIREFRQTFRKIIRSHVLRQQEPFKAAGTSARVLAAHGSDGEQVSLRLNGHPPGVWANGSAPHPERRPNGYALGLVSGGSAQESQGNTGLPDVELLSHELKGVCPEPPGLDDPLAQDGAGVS
T6 sequence (P14416 whole entry, species assumed): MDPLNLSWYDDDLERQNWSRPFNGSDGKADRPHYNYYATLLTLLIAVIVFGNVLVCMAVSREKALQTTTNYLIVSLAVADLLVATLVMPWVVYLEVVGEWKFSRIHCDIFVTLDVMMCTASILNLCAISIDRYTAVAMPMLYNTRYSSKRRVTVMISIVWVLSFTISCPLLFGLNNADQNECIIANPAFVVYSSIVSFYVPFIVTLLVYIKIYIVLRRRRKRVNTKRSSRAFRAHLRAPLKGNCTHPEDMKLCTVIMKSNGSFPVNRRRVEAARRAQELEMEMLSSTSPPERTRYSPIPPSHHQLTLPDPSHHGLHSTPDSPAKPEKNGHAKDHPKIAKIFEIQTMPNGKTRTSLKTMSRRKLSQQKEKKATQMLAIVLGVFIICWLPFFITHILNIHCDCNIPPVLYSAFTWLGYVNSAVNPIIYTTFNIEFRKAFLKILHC

SMILES | Ki (human A3AR) [nM] | inhibition at 1 µM (human A3AR) [%] | inhibition at 1 µM (human A2BAR) [%] | inhibition at 1 µM (human A1AR) [%] | Ki (Dopamine D3 receptor) [nM] | inhibition at 1 µM (human A2AAR) [%] | Ki (Dopamine D2 receptor) [nM] | Ki (human A2BAR) [nM] | also measured
COc1ccc(-c2cc(NC(=O)CCC(=O)N(C)CC(=O)NCCCOCCOCCOCCCNC(=O)CN(C)C(=O)COc3ccc(-c4ccc5n4[B-](F)(F)[N+]4=C(c6cccs6)C=CC4=C5)cc3)nc(-c3ccc(OC)cc3)n2)cc1 | 6.13 | – | – | – | – | – | – | – | –
CN(CC(=O)NCCOCCOCCNC(=O)CN(C)C(=O)CC(C)(C)CC(=O)Nc1c(F)cc(C(=O)Nc2nccs2)cc1F)C(=O)CCCCCN1/C(=C/C=C/C=C/C2=[N+](C)c3ccccc3C2(C)C)C(C)(C)c2ccccc21 | – | 54 | 59 | 33 | – | – | – | – | Ki (human A2AAR): 420 nM
COc1ccc(-c2cc(NC(=O)COCC(=O)N(C)CC(=O)NCCOCCOCCOCCOCCNC(=O)CN(C)C(=O)CCCOc3ccc(CN4CCN(c5ccccc5OC)CC4)cc3OC)nc(-c3ccc(OC)cc3)n2)cc1 | 10 | – | 4 | 8 | 2600 | 5 | 30 | – | –
CCCn1c(=O)c2[nH]c(-c3ccc(OCC(=O)NCC(=O)N4CCN(CC(=O)NCCCOCCOCCOCCCNC(=O)CN(C)C(=O)COc5ccc(C6=[N+]7C(=Cc8ccc(-c9cccs9)n8[B-]7(F)F)C=C6)cc5)CC4)cc3)cc2n(C)c1=O | 42.7 | – | – | – | – | 23 | – | 39.6 | Ki (human A1AR): 471 nM
CN(CC(=O)NCCCOCCOCCOCCCNC(=O)CN(C)C(=O)CC(C)(C)CC(=O)Nc1c(F)cc(C(=O)Nc2nccs2)cc1F)C(=O)CCCCCN1/C(=C/C=C/C=C/C2=[N+](C)c3ccccc3C2(C)C)C(C)(C)c2ccccc21 | – | 37 | 18 | 31 | – | – | – | – | Ki (human A2AAR): 8.35 nM
[C-]#[N+]CCCOCCOCCOCCCNC(=O)CN(C)C(=O)/C=C/c1ccc2sc(C(=O)NCCCCN3CCN(c4cccc(Cl)c4Cl)CC3)cc2c1 | – | – | – | – | 1 | – | 1.1 | – | Ki (D4): 500 nM
CCCn1c(=O)c2[nH]c(-c3ccc(OCC(=O)NCC(=O)N4CCN(C(C)(C)C(=O)NCCCOCCOCCOCCCNC(=O)CN(C)C(=O)COc5ccc(C6=[N+]7C(=Cc8ccc(-c9cccs9)n8[B-]7(F)F)C=C6)cc5)CC4)cc3)cc2n(C)c1=O | – | 37 | – | 46 | – | 1 | – | 250 | –
[C-]#[N+]CCCOCCOCCOCCCNC(=O)CN1CCN(C(=O)CNC(=O)COc2ccc(-c3cc4c([nH]3)c(=O)n(CCC)c(=O)n4C)cc2)CC1 | 195 | – | – | – | – | 13 | – | 78.6 | Ki (human A1AR): 101 nM
CN(CC(=O)NCCCOCCOCCOCCCNC(=O)CN(C)C(=O)COc1ccc(-c2ccc3n2[B-](F)(F)[N+]2=C(c4cccs4)C=CC2=C3)cc1)C(=O)CCC(=O)Nc1ccc(CCN2CN(c3ccccc3)C3(CCN(CCCC(=O)c4ccc(F)cc4)CC3)C2=O)cc1 | – | – | – | – | 148 | – | 1.06 | – | –
